We go through two compounds from ChEMBL document CHEMBL1130628, “Synthesis and antiproliferative activity of a cyclic analog of dolastatin 10” (Bioorg Med Chem Lett, 1998).

Molecules are shown by their SMILES.

In assay [1] the test system is HT-29. Kind of assay: Compound was evaluated for antiproliferative activity against human colon adenocarcinoma (HT-29) cell lines. The assay is classed as functional, cell-based.
Assay [2] deals with T1, Tubulin alpha chain (Sus scrofa, UniProt P02550). Description: Compound was tested in vitro for inhibition of tubulin polymerization. The assay is classed as functional.
T1 sequence (P02550 whole entry, looked up): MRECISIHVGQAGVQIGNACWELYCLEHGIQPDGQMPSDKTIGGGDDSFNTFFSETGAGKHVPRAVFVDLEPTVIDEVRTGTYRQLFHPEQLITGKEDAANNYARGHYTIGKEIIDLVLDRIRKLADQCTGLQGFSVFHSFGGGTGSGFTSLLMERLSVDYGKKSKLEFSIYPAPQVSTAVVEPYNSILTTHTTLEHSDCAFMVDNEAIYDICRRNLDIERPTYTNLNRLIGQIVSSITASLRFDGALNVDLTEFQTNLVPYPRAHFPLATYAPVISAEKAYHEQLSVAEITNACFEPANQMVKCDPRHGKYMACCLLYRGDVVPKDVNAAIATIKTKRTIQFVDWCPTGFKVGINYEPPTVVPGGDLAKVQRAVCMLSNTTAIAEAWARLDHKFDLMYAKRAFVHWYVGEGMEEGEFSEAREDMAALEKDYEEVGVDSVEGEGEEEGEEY
The subject of assay [3] is L1210. Description: Compound was evaluated for antiproliferative activity against murine leukemia (L1210) cell lines. The settings on record: Mus musculus. The assay is classed as functional, cell-based.
The target of assay [4] is T1, Tubulin alpha chain. Description: Compound was tested in vitro for inhibition of tubulin polymerization. The assay is classed as functional.
In assay [5] the test system is L1210. Description: Compound was evaluated for antiproliferative activity against murine leukemia (L1210) cell lines. The assay is classed as functional, cell-based. The settings on record: Mus musculus.

In general, IC50 refers to the concentration that inhibits the measured activity by half. Low values mean higher potency, high ones lower potency. Consider `CC[C@H](C)[C@H]1[C@H](OC)CC(=O)N2CCC[C@H]2[C@H](OC)[C@H](C)C(=O)N[C@@H](Cc2ccccc2)c2nc(cs2)C(=O)O[C@H](C)[C@H](N(C)C)C(=O)N[C@@H](C(C)C)C(=O)N1C`, for which the figures for the IC50 in assay [1], in assay [2] and in assay [3] were 58.5 nM, 39000 nM and 111 nM, respectively.

For the compound `CC[C@H](C)[C@@H]([C@@H](CC(=O)N1CCC[C@H]1[C@H](OC)C(C)C(=O)NC(Cc1ccccc1)c1nccs1)OC)N(C)C(=O)[C@@H](NC(=O)[C@H](C(C)C)N(C)C)C(C)C` (single isomer, unassigned) [DOLASTATIN-10], the IC50 in assay [4] is 2200 nM; in assay [5], 0.03 nM; in assay [1], 0.06 nM.
